Test results taken from US10259804B2, “Anti-endothelial lipase compounds and methods of using the same in the treatment and/or prevention of cardiovascular diseases” (Shifa Biomedical Corporation, priority 2014, dated 2019).

Tests used:
Type in all cases: biochemical
[1] = biological target: T1, human full-length LPL (lipoprotein lipase) (Homo sapiens, UniProt P06858); experiment: LPL selectivity assay (phospholipase kit, resorufinoleate substrate); conditions: even at 200 uM compound concentration
T1 construct: We have cloned the human full-length EL, LPL, HL and PL; made in house; host or cells: HEK-293, transient transfection
T1 sequence (P06858 28-475): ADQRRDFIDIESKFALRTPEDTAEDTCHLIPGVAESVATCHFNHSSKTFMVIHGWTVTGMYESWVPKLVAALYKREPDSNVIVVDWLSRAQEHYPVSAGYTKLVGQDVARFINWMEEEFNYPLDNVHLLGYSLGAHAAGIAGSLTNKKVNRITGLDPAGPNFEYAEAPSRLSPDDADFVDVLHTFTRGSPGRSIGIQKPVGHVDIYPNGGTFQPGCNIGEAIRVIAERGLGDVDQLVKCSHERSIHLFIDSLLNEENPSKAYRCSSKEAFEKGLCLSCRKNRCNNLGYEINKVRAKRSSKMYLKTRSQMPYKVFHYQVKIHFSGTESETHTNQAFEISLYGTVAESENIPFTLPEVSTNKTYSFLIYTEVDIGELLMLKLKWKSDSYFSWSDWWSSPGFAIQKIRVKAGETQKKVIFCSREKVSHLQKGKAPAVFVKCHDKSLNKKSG
Protocol: (§1) Preparation of constructs: We have cloned the human full-length EL, LPL, HL and PL. The cDNA encoding the EL, LPL, HL and PL sequence was cloned by PCR and subcloned into a mammalian expression vector containing the cytomegalovirus promoter-enhancer. The constructs were confirmed by sequence analysis.
(§2) Expression of EL, LPL, HL and PL in mammalian cells: The above constructs were used to transfect HEK-293 cells. The cells were seeded into T75 plates in a DMEM solution containing 10% Fetal Bovine Serum media and incubated overnight at 37° C. Cells were transiently transfected with various cDNA constructs using the Lipofectamine-LTX as described by the manufacturer (Invitrogen). After transfection, cells were then incubated for an additional 48 hours at 37° C. before being analyzed for expression. After 48 hours of incubation, following transfection, cells were collected for analysis by western blots for the expression of EL, LPL, HL and PL.
(§3) LPL, PL and HL selectivity assays: For measuring LPL, PL and HL activity, we used the commercially available phospholipase kit (MGT). The activity of the substrate, resorufinoleate is quite good for both phospholipase A1 and phospholipase A2, and therefore is ideal for LPL, PL and HL. Since the substrate is quite general for other lipases such as triacylglycerol lipases or lipoprotein lipases, we utilized our recombinant system and cell specific expression system to achieve the desired specificity. The LPL, PL and HL enzyme activity measurements were conducted using a 96-well microtiter plate. All appropriate controls were implemented.
(§4) Experiments were also performed to determine the specificity of our best compounds against the most closely related homologues, LPL, PL and HL.

[2] = biological target: T2, human full-length PL (pancreatic lipase) (Homo sapiens, UniProt P16233); experiment: PL selectivity assay (phospholipase kit, resorufinoleate substrate); conditions: even at 200 uM compound concentration
T2 construct: We have cloned the human full-length EL, LPL, HL and PL; made in house; host or cells: HEK-293, transient transfection
T2 sequence (P16233 17-465): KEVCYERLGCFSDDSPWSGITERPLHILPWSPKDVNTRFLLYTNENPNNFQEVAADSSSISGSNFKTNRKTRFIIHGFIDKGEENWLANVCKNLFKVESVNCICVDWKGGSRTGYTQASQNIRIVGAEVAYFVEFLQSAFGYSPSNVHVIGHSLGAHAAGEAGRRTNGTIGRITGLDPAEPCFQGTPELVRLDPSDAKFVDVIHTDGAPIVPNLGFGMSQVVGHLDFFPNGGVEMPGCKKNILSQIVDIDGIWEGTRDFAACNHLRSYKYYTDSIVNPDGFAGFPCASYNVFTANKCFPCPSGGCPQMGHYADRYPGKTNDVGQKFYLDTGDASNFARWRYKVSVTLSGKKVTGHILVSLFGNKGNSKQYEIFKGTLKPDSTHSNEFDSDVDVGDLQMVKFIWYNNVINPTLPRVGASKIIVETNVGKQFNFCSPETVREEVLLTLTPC
Protocol: as §1, §2, §3, §4

[3] = biological target: T3, human full-length EL (endothelial lipase) (Homo sapiens, UniProt Q9Y5X9); experiment: EL inhibition assay using cell extracts of HEK293/EL transfected cells; conditions: compound 0.001-200 μM, means of three experiments
T3 construct: We have cloned the human full-length EL, LPL, HL and PL; made in house; host or cells: HEK-293, transient transfection; cell extracts used
T3 sequence (Q9Y5X9 21-500): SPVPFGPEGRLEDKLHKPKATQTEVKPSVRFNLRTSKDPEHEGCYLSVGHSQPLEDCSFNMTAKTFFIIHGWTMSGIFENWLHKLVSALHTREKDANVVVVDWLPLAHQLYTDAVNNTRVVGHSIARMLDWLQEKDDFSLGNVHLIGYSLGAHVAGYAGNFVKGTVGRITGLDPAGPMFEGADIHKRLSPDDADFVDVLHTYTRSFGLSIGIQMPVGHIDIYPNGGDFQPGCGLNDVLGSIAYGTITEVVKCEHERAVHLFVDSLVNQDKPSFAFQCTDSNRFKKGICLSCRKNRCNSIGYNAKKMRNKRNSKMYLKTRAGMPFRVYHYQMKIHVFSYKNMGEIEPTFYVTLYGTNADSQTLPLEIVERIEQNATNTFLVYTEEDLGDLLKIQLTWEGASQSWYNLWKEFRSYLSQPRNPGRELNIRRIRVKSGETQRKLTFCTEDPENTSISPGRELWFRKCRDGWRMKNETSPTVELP
Protocol: as §1, §2
EL screening assay: We developed and implemented two assays (a) in assay one the HDL-C functions as a substrate for the assay. This assay measures the rate of HDL hydrolysis by EL that yields free fatty acids, which are then coupled through acyl-CoA synthetase, acyl-CoA oxidase and horseradish peroxidase to produce the fluorescent species, resorufin; (b) in assay two PED-A1, a novel fluorogenic phospholipase A1-selective substrate was used for EL measurements. […] Assay one was used for initial screening, while assay two was used for secondary screening and EL kinetics.
Characterization of the Hits: A library of compounds that modified both the urea and sulfonamide substituents on the 5-methyl furan were synthesized. The library was extensively analyzed for EL potency, and then the data was utilized to further optimize the compounds. Seven compounds were selected for potency, kinetic and selectivity confirmation.
In order to determine the Ki value, we used variable concentrations of the compound and variable substrate concentrations.

[4] = biological target: T4, human full-length HL (hepatic lipase) (Homo sapiens, UniProt P11150); experiment: HL selectivity assay (phospholipase kit, resorufinoleate substrate); conditions: even at 200 uM compound concentration
T4 construct: We have cloned the human full-length EL, LPL, HL and PL; made in house; host or cells: HEK-293, transient transfection
T4 sequence (P11150 23-499): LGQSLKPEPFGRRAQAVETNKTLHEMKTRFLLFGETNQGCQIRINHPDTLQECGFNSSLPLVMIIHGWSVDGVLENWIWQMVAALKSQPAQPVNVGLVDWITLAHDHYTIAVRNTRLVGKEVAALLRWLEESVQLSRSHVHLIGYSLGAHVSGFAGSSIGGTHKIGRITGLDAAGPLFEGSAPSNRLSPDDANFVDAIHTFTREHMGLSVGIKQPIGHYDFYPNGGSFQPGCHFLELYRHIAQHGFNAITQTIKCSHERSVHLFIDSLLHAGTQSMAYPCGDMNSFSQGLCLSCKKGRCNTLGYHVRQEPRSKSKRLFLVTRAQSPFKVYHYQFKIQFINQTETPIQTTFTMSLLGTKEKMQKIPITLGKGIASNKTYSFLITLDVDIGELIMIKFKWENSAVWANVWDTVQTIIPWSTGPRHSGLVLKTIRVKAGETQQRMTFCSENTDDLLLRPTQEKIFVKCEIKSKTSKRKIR
Protocol: as §1, §2, §3, §4

inhibition against LPL activity [1]	inhibition against PL activity [2]	IC50 [3]	inhibition against HL activity [4]	Compound
no inhibition	no inhibition	19 nM	no inhibition	COC1CCN(S(=O)(=O)c2cc(NC(=O)NCc3ccccc3C(F)(F)F)c(C)o2)CC1 [SBC-140,460]
no inhibition	no inhibition	62 nM	no inhibition	Cc1ccccc1NC(=O)Nc1cc(S(=O)(=O)N2CCC(C(F)(F)F)CC2)oc1C [SBC-140,466]
no inhibition	no inhibition	79 nM	no inhibition	Cc1oc(S(=O)(=O)N2CCC(C(F)(F)F)CC2)cc1NC(=O)NC(c1ccccc1)C(F)(F)F (stereo not drawn) [SBC-140,472]
